Reference: US20240398771A1, “TREATMENT OF SCLERODERMA AND RAYNAUD'S SYNDROME” (Aisa Pharma, Inc., priority 2023, published 2024)

Key:
participants with SSc-RP [1] = assay: SHAQ Visual Analog Scale - Pain; type: in vivo, human
Procedure: Results: Patients in the study were administered the Scleroderma Health Assessment Questionnaire (SHAQ) at the time of study entry and during clinic visits following the treatment period. The study is a two-part, parallel arm design, prospective, double-blind, randomized study conducted in Australia (Flinders Medical Center). 27 patients were randomized into the first phase of the study, following which a DSMB meeting was held, which reviewed data on the primary study endpoint and key Raynaud's secondary endpoints. Data on the SHAQ was not available for the DSMB to review. The mITT population, in which any data was available post treatment was 24 patients was the analysis population for this first part of the study. The second part (i.e., part B) of the study will randomize 36 patients in a double blind, randomized, prospective, placebo controlled, crossover study. In the first part (i.e., Part A) of the study for which data is presented, patients were randomized into 6 groups, cilnidipine at two doses (10 and 20 mg) alone and in combination with tadalafil 5 mg, tadalafil 5 mg alone, and placebo. […] The DSMB recommended that the study proceed into its double blind prospective cross overpowered second phase and compare cilnidipine 20 mg alone to placebo. […] Cilnidipine treatment may reduce patient-reported SSc disease disability compared to placebo • b. Cilnidipine treatment may reduce patient-reported SSc disease alternative disability compared to placebo • c. Cilnidipine treatment may reduce patient-reported SSc disease pain* compared to placebo • d. Cilnidipine treatment may reduce patient-reported SSc disease severity compared to placebo • e. Cilnidipine treatment may reduce patient-reported SSc disease skin ulcer severity rating compared to placebo • f Cilnidipine treatment may reduce patient-reported SSc disease breathing difficulty compared to placebo • g. […] SSc disease pain comprises not only pain from Raynaud's but joint pain, headache, odynophagia, back pain, pain from skin ulceration, and neuropathic pain). Table E includes results of the Scleroderma Health Assessment Questionnaire.
Pain on the SHAQ outcome measure on the first line in table F is a composite of all pain experienced in patients with SSc, comprising joint pain, back pain, headache, odynophagia, skin ulcer related discomfort, Raynaud's, and neuropathic pain. Aisa Pharma believes, based on the biologic attributes and actions of cilnidipine that differ from most dihydropyridine calcium channel antagonists that cilnidipine might have direct analgesic effects in certain pain conditions and in fact has been designated to receive evaluation through the NIH-NINDS Preclinical Pain Screening Platform Program to investigate the drug in multiple in vitro and in vivo preclinical models of pain that are validated and predictive of effects in man.

participants with SSc-RP [2] = assay: Frequency of weekly RP attacks, all attacks (patient diary; primary endpoint); type: in vivo, human; conditions: for Weekly RP Attacks (All Attacks), Max / Weekly RP Attacks (All Attacks), Min / Weekly RP Attacks (All Attacks), Q1 / Weekly RP Attacks (All Attacks), Q3: last 7 days of dosing period
Procedure: Part A—Double-blind, Placebo-controlled, Parallel-group, Dose selection, will assess the safety and efficacy of two doses of cilnidipine (10 mg and 20 mg), alone and in combination with tadalafil. A total of 36 participants will be randomized to one of six pre-specified treatment arms. See Example 3 for data obtained in this phase of the study thus far, on 11 participants.
Please refer to FIG. 1 for treatment arms in Part A of the study. Dosing lasted or will last for 12 (±2) days in which participants self-administered or will self-administer daily doses of assigned treatment in the morning. Each participant took or will take one capsule and one tablet to blind the active therapy being received.
The relevant metrics measured by this tool daily are: • Study medication • SSc-RP symptoms (Reporting an attack including duration of attack) • Severity of the attack considering all symptoms of the attack e.g. tingling, numbness, pain, color changes (VAS 0-10 cm scale) • Participant's location at the time of the attack (inside home/outside home) • Selecting symptoms experienced during the attack (tingling, numbness, pain, color changes, other) • Pain rating during the attack (11-point Likert scale) • The RCS based on how much difficulty participants had with Raynaud's today, how many attacks the participant had, and how long they lasted. Participants will also be asked to consider how much pain, numbness, or other symptoms the Raynaud's caused in fingers (including painful sores), and how much the Raynaud's alone affected the use of hands today (VAS 0-10 cm scale).
Percent change from baseline evaluation for frequency of weekly RP attacks were or will be used as the primary efficacy variable. The sponsor-developed participant-informed diary will be used to record data. Frequency of weekly RP attacks is defined as the total number of RP attacks divided by the number of days with available diary data within the last 7 days of each dosing period then multiplied by 7. Total number of RP attacks during the last 7 days of screening period divided by the number of days with available data then multiplied by 7 will be used as baseline for the analysis of all periods.
Percentage change={(weekly RP attacks for the last 7 days of each dosing period−Baseline weekly RP attacks)/Baseline weekly RP attacks}*100%.
Absolute change=weekly RP attacks for the last 7 days of each dosing period−Baseline weekly RP attacks
Percent change from baseline evaluation for frequency of weekly RP attacks was and will be the primary efficacy endpoint. Frequency of weekly RP attacks is defined as the total number of RP attacks divided by the number of days with available diary data within the last 7 days of each dosing period then multiplied by 7. Total number of RP attacks during the last 7 days of screening period divided by the number of days with available data then multiplied by 7 will be used as baseline for the analysis of all periods.
The following data was actually obtained in accordance with the protocol and plan delineated in Examples 1 and 2. The accompanying data involved 11 patients out of the planned 76 patient study. The study was done in patients with scleroderma (systemic sclerosis) who had relatively frequent Raynaud symptoms as they needed to average at least one attack per day during a screening period of up to two weeks. In this first phase of this double-blind placebo-controlled, prospective randomized study, patients were treated in parallel and after meeting study criteria were randomized to receive either placebo, cilnidipine 10 mg daily, cilnidipine 20 mg daily, tadalafil 5 mg daily, cilnidipine 10 mg plus 5 mg of tadalafil, or cilnidipine 20 mg plus 5 mg of tadalafil.
Results: Patients in the study were administered the Scleroderma Health Assessment Questionnaire (SHAQ) at the time of study entry and during clinic visits following the treatment period. […]

[3] = Tadalafil 5 mg, Modified ITT, Part A
[4] = Table A-5, ITT Part A, last 7 days of dosing vs last 7 days of screening
[5] = Table A-5, ITT Part A, listed as Cilnidipine 10 mg
[6] = Table A-5, ITT Part A, listed as Cilnidipine 20 mg
[7] = Table A-5, ITT Part A, listed as Pooled Cilnidipine
[8] = Table A-5, ITT Part A, last 7 days of dosing vs last 7 days of screening, listed as Cilnidipine 10 mg
[9] = Table A-5, ITT Part A, last 7 days of dosing vs last 7 days of screening, listed as Cilnidipine 20 mg

SMILES: CN1CC(=O)N2[C@H](c3ccc4c(c3)OCO4)c3[nH]c4ccccc4c3C[C@@H]2C1=O [Tadalafil]
- Visual Analog Scale-Pain, Baseline, Mean (participants with SSc-RP [1]; [3]): 3.167
- Visual Analog Scale-Pain, Baseline, Median (participants with SSc-RP [1]; [3]): 2.900
- Visual Analog Scale-Pain, Change from Baseline, Mean (participants with SSc-RP [1]; [3]): −0.300
- Visual Analog Scale-Pain, Change from Baseline, Median (participants with SSc-RP [1]; [3]): −0.100
- Visual Analog Scale-Pain, In Clinic Visit (Day 12), Mean (participants with SSc-RP [1]; [3]): 2.700
- Visual Analog Scale-Pain, In Clinic Visit (Day 12), Median (participants with SSc-RP [1]; [3]): 2.150
- Visual Analog Scale-Pain, Percent Change from Baseline, Mean (participants with SSc-RP [1]; [3]): −14.24%
- Visual Analog Scale-Pain, Percent Change from Baseline, Median (participants with SSc-RP [1]; [3]): −4.55%
- Weekly RP Attacks (All Attacks), Max (participants with SSc-RP [2]; Table A-5, ITT Part A): 19.0
- Weekly RP Attacks (All Attacks), Min (participants with SSc-RP [2]; Table A-5, ITT Part A): 7.0,
- Weekly RP Attacks (All Attacks), Q1 (participants with SSc-RP [2]; Table A-5, ITT Part A): 7.00,
- Weekly RP Attacks (All Attacks), Q3 (participants with SSc-RP [2]; Table A-5, ITT Part A): 19.00
- Weekly RP Attacks (All Attacks) Change from Baseline, Max (participants with SSc-RP [2]; [4]): 6.0
- Weekly RP Attacks (All Attacks) Change from Baseline, Min (participants with SSc-RP [2]; [4]): 0.0,
- Weekly RP Attacks (All Attacks) Change from Baseline, Q1 (participants with SSc-RP [2]; [4]): 0.00,
- Weekly RP Attacks (All Attacks) Change from Baseline, Q3 (participants with SSc-RP [2]; [4]): 6.00
- Weekly RP Attacks (All Attacks) Percent Change from Baseline, Min (participants with SSc-RP [2]; [4]): 0.0, %
- Weekly RP Attacks (All Attacks) Percent Change from Baseline, Q1 (participants with SSc-RP [2]; [4]): 0.00, %

SMILES: COCCOC(=O)C1=C(C)NC(C)=C(C(=O)OC/C=C/c2ccccc2)C1c1cccc([N+](=O)[O-])c1 (stereo not drawn) [Cilnidipine, 1,4-dihydro-2,6-dimethyl,4-(3-nitrophenyl)-3,5-pyridinedicarboxylic acid 2-methoxyethyl (2 E)-3-phenyl-2-propenyl ester]
- VAS- PAIN, Baseline on a 0-10 VAS (participants with SSc-RP [1]; Cilnidipine 20 mg (n = 3), footnote *): *Baseline was 2.17 on a 0-10 VAS
- Visual Analog Scale-Pain, Baseline, Median (participants with SSc-RP [1]; Cilnidipine 20 mg, Modified ITT, Part A): 1.500
- patient-reported SSc disease pain compared to placebo (participants with SSc-RP [1]; Example 4, SHAQ, mITT Part A): may reduce
- Efficacy Seen: overall response (participants with SSc-RP [2]; 20 mg dose group): shows best overall
- effect on Raynaud's endpoints (DSMB review) (participants with SSc-RP [2]; Example 4, Part A, both doses (10 and 20 mg)): effective at reducing Raynaud's endpoints
- Weekly RP Attacks (All Attacks) Percent Change from Baseline, Median (participants with SSc-RP [2]; Pooled Cilnidipine 20 mg and Cilnidipine 20 mg + Tadalafil 5 mg, excluding outliers, baseline RCS subgroup not named, upper half of table, ITT Part A): −45.00%
- Weekly RP Attacks (All Attacks), Median (participants with SSc-RP [2]; Pooled Cilnidipine, excluding outliers, baseline RCS subgroup not named, upper half of table, ITT Part A): 11.00
- Weekly RP Attacks (All Attacks), Max (participants with SSc-RP [2]; [5]): 23.0
- Weekly RP Attacks (All Attacks), Min (participants with SSc-RP [2]; [5]): 23.0,
- Weekly RP Attacks (All Attacks), Q1 (participants with SSc-RP [2]; [5]): 23.00,
- Weekly RP Attacks (All Attacks), Q3 (participants with SSc-RP [2]; [5]): 23.00
- Weekly RP Attacks (All Attacks), Max (participants with SSc-RP [2]; [6]): 11.0
- Weekly RP Attacks (All Attacks), Min (participants with SSc-RP [2]; [6]): 5.0,
- Weekly RP Attacks (All Attacks), Q1 (participants with SSc-RP [2]; [6]): 5.00,
- Weekly RP Attacks (All Attacks), Q3 (participants with SSc-RP [2]; [6]): 11.00
- Weekly RP Attacks (All Attacks), Max (participants with SSc-RP [2]; [7]): 23.0
- Weekly RP Attacks (All Attacks), Min (participants with SSc-RP [2]; [7]): 5.0,
- Weekly RP Attacks (All Attacks), Q1 (participants with SSc-RP [2]; [7]): 5.00,
- Weekly RP Attacks (All Attacks), Q3 (participants with SSc-RP [2]; [7]): 23.00
- Weekly RP Attacks (All Attacks) Change from Baseline, Min (participants with SSc-RP [2]; [4]): −9.0,
- Weekly RP Attacks (All Attacks) Change from Baseline, Q1 (participants with SSc-RP [2]; [4]): −9.00,
- Weekly RP Attacks (All Attacks) Change from Baseline, Max (participants with SSc-RP [2]; [8]): −9.0
- Weekly RP Attacks (All Attacks) Change from Baseline, Q3 (participants with SSc-RP [2]; [8]): −9.00
- Weekly RP Attacks (All Attacks) Change from Baseline, Max (participants with SSc-RP [2]; [9]): −4.3
- Weekly RP Attacks (All Attacks) Percent Change from Baseline, Max (participants with SSc-RP [2]; [9]): −45.0%
- Weekly RP Attacks (All Attacks) Percent Change from Baseline, Q3 (participants with SSc-RP [2]; [9]): −45.00%
- Weekly RP Attacks (All Attacks) Change from Baseline, Max (participants with SSc-RP [2]; Table A-5, ITT Part A, last 7 days of dosing vs last 7 days of screening, listed as Pooled Cilnidipine): −4.3
